Results: patent publication US8178575B2, “Derivatives of azabicyclo octane, the method of making them and the uses thereof as inhibitors of dipeptidyl peptidase IV” (Shanghai Hengrui Pharmaceutical Co., Ltd., priority 2007, dated 2012)
Structures can show the parent of a compound that is named as a salt.

How the values were obtained:
[1] = system: type II diabetes KKAy mice; test: Oral glucose tolerance test in type II diabetes KKAy mice; assay type: in vivo
Protocol: Normal KKAy mice had been fasted for 6 hours, and then were randomly grouped according to weights and fasting blood glucose, 5 mice in each group. The groups included a blank control group as well as different doses of the treatment groups as follows:
30 minutes later, animals were administered 2.5 g/kg (female KKAy mice) or 1.5 g/kg (male KKAy mice) glucose by gavage. After administration of glucose at 30, 60 and 120 minuets, serum glucose levels were determined by Glucometer.
• 3. Mean±SD and Student-t test or Anova were used in data statistical analysis. • 4.

normal ICR mice = test: Oral glucose tolerance test in normal ICR mice; assay type: in vivo; conditions: male ICR mice, 30 minutes after 2.5 g/kg glucose
Protocol: Normal male ICR mice were randomly grouped according to weights, 6 mice in each group. The groups included a blank control group as well as different doses of the treatment groups as follows:
Animals in each group had been fasted for 6 hours, and then pretreated with compounds or double distilled water by gavage respectively in single administration. 30 minutes later, animals were administered 2.5 g/kg glucose by gavage. Before administration and after administration of glucose at 30, 60 and 120 minuets, blood was taken to determine serum glucose levels.
Serum glucose is determined by glucose kit. 250 μl working enzyme solution was taken, and then 5 μl serum was added to the solution. A blank tube (5 μl double distilled water was added) and a standard tube (5 μl glucose standard solution was added) were established simultaneously, shaking respectively, and in 37° C. water bath for 20 minutes. The blank tube was tuned with, and then calorimetric assay was determined at OD505 nm. Serum glucose concentration (BG, mmol/l)=ODsample tube/ODstandard tube×5.55 Data Processing and Statistical Analysis: • 1. Mean±SD and Student-t test were used in data statistical analysis. • 2. The percentage of blood glucose decline in 30 minutes after sugar administration as well as the area under the curve (AUC) was calculated.

FAP = target: T1, FAP (Homo sapiens, UniProt Q12884); test: Selective activity determination of DPPIV inhibitors, fluorescence substrate; assay type: biochemical
T1 sequence (Q12884 1-760): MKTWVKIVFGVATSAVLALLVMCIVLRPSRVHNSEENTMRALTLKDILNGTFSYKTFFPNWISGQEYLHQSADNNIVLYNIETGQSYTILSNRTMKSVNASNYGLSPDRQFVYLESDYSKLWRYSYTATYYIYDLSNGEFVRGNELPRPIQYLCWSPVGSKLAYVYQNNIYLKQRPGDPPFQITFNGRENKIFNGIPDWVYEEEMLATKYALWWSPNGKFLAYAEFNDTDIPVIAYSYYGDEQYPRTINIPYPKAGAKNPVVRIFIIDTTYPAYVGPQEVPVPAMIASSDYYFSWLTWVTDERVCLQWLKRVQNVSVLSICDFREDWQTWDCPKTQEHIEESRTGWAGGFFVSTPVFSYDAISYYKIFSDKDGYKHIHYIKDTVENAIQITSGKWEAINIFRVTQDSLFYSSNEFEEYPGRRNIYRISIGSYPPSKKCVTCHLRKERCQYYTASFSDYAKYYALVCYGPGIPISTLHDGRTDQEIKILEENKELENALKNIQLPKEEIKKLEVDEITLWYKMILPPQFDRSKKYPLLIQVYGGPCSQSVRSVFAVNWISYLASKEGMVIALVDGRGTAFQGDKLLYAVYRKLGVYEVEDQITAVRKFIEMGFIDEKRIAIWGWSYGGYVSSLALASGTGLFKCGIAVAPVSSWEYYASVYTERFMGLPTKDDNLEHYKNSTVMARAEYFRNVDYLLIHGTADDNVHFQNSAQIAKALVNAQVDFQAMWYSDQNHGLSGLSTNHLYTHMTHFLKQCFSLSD
Description: (§1) It can cut off the first two amino acids in many of the N-peptide to change or lose its biological activity. Gene knockout animal and human experiments indicate that reducing DPPIV activity effectively and specifically in vivo can improve blood insulin content and lower blood sugar levels, so as to improve the symptoms of diabetes effectively.
(§2) By using the insect expression system, the recombinant proteins of DPPIV, DPP8, DPP9 and QPP had been obtained. The activities of the […] enzymes were detected by fluorescence Substrate. The inhibitory effects of compounds were evaluated by the effects of different compounds on inhibiting enzyme activities. Positive reference compound was LAF237.

QPP = target: T2, QPP (Homo sapiens, UniProt Q9UHL4); test: Selective activity determination of DPPIV inhibitors, recombinant enzyme, fluorescence substrate; assay type: biochemical; conditions: recombinant protein from insect expression system
T2 construct: made in house; host or cells: insect expression system
Description: as §1, §2

DPPIV = target: T3, DPPIV (Homo sapiens, UniProt P27487); test: as above; assay type: biochemical
T3 construct: made in house; host or cells: insect expression system
T3 sequence (P27487 whole entry): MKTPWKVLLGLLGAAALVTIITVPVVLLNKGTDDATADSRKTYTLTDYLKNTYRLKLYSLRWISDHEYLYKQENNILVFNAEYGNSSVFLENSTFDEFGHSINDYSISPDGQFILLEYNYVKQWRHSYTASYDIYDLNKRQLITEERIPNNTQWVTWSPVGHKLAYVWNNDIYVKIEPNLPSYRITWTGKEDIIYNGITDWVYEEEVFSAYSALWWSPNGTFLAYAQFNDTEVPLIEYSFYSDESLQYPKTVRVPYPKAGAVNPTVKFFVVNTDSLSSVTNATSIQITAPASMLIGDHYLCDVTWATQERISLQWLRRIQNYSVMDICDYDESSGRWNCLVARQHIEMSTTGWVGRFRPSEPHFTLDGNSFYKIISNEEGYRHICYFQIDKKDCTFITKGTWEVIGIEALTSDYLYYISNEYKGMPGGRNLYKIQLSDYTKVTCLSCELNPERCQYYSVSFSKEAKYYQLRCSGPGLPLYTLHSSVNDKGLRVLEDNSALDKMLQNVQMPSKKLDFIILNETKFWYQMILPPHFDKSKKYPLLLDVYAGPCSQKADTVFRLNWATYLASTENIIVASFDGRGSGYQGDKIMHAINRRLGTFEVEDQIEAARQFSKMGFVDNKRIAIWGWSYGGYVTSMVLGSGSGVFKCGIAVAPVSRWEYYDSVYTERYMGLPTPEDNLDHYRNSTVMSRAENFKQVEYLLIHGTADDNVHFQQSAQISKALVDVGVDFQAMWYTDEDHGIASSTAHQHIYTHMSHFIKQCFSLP
Description: as §1, §2

[2] = female KKAy mice, 10 mg/kg by gavage, 30 minutes after 2.5 g/kg glucose
[3] = male KKAy mice, 10 mg/kg by gavage, 30 minutes after 1.5 g/kg glucose
[4] = male KKAy mice, 30 mg/kg by gavage, 30 minutes after 1.5 g/kg glucose
[5] = Test 1, high dose (10 mg/kg by gavage)
[6] = Test 1, low dose (1 mg/kg by gavage)
[7] = Test 1, middle dose (3 mg/kg by gavage)
[8] = Test 2, high dose (10 mg/kg by gavage)
[9] = Test 2, low dose (1 mg/kg by gavage)
[10] = Test 2, middle dose (3 mg/kg by gavage)

SMILES	percentage of blood glucose decreased vs control group ([1]; female KKAy mice, 3 mg/kg by gavage, 30 minutes after 2.5 g/kg glucose) [%]	percentage of blood glucose decreased vs control group [1, 2] [%]	percentage of blood glucose decreased vs control group [1, 3] [%]	percentage of blood glucose decreased vs control group [1, 4] [%]	percentage of blood glucose decreased vs control group (normal ICR mice; [5]) [%]	percentage of blood glucose decreased vs control group (normal ICR mice; [6]) [%]	percentage of blood glucose decreased vs control group (normal ICR mice; [7]) [%]	percentage of blood glucose decreased vs control group (normal ICR mice; [8]) [%]	percentage of blood glucose decreased vs control group (normal ICR mice; [9]) [%]	percentage of blood glucose decreased vs control group (normal ICR mice; [10]) [%]	IC50 (FAP) [nM]	IC50 (QPP) [nM]	IC50 (DPPIV) [nM]
CN(C)C(=O)N1C[C@H]2C[C@@H](NCC(=O)N3CCC[C@H]3C#N)C[C@H]2C1 (relative stereo) [Example 1, cis-5-[2-(2-Cyano-pyrrolidin-1-yl)-2-oxo-ethylamino]-hexahydro-cyclopenta[c]pyrrole-2-carboxylic acid dimethylamide hydrochloride]	40.63	24.68	16.22	17.15	31.85	19.16	22.85	32.05	26.10	30.24	–	–	–
COC(=O)N1C[C@H]2C[C@@H](NCC(=O)N3CCC[C@H]3C#N)C[C@H]2C1 (relative stereo) [Example 2, cis-5-[2-(2-Cyano-pyrrolidin-1-yl)-2-oxo-ethylamino]-hexahydro-cyclopenta[c]pyrrole-2-carboxylic acid methyl ester hydrochloride]	–	21.55	13.79	12.23	26.93	25.54	25.92	27.75	24.51	26.96	476 ± 112	> 56000	98 ± 36.4
